Article PMC2891302 (Bioconjugate chemistry, 2009)

Columns and labels:
[1] = molecular target: T1, hA1 AR (Homo sapiens, UniProt P30542); assay: Radioligand binding at hA1 AR
T1 sequence (P30542 1-326): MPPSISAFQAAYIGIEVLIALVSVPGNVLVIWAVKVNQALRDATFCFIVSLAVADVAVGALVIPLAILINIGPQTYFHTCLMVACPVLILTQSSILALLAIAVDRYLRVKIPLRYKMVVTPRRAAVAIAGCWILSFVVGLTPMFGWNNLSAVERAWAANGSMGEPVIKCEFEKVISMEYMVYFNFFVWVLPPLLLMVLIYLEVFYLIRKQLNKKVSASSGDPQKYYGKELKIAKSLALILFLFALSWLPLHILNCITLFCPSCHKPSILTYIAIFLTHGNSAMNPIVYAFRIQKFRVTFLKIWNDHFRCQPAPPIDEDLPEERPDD

[2] = molecular target: T2, hA3 AR (Homo sapiens, UniProt P0DMS8); assay: Radioligand binding at hA3 AR
T2 sequence (P0DMS8 1-318): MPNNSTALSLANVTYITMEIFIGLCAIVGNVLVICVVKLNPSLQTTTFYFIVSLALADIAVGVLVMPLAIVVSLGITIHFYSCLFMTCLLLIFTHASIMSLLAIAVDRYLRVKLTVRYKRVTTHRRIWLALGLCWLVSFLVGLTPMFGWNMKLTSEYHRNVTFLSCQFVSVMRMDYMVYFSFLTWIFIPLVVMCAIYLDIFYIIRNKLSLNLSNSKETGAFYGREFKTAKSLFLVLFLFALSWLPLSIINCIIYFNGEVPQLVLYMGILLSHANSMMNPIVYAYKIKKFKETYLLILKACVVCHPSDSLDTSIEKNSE

[3] = molecular target: T3, hA2B AR (Homo sapiens, UniProt P29275); assay: Cyclic AMP accumulation assay, CHO cells expressing hA2B AR; format: cell-based; details: at 10 μM, in comparison to full agonist NECA (100%)
T3 sequence (P29275 1-332): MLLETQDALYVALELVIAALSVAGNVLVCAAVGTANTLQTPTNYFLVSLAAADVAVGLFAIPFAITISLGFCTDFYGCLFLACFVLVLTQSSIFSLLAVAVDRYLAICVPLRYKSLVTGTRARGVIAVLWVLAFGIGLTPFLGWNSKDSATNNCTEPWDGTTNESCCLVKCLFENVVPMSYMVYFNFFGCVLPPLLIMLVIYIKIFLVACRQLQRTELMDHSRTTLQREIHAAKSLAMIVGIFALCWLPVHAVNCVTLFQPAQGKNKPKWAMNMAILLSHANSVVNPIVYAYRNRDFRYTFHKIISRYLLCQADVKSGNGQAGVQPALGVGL

[4] = test system: human washed platelets; assay: Inhibition of ADP-induced aggregation of human washed platelets; format: cell-based; details: Platelet, read-out: IC50, inhibition of platelet aggregation
[5] = inhibition of radioligand binding at 1 μM

| Compound | hA1 % inhibition [1, 5] [%] | hA3 % inhibition [2, 5] [%] | hA2B % activation of adenylate cyclase [3] [%] | inhibition at 1 µM ([1]; read-out: hA1 % inhibition) [%] | inhibition at 1 µM ([2]; read-out: hA3 % inhibition) [%] | IC50 [4] [nM] |
| --- | --- | --- | --- | --- | --- | --- |
| CCNC(=O)[C@H]1O[C@@H](n2cnc3c(N)nc(NCCc4ccc(CCC(=O)NCCN)cc4)nc32)[C@H](O)[C@@H]1O [compound 2, 2-[4-(2-Aminoethylaminocarbonylethyl)phenylethylamino]-5′-N-ethylcarboxamidoadenosine, reference compound] | 56.9 ± 9.1 | 85.3 ± 3.2 | 5.5 ± 4.7 | – | – | – |
| CCNC(=O)[C@H]1O[C@@H](n2cnc3c(N)nc(NCCc4ccc(CCC(=O)O)cc4)nc32)[C@H](O)[C@@H]1O [compound 1, 2-[4-(2-carboxylethyl)phenylethylamino]-5′-N-ethylcarboxamidoadenosine, reference compound] | – | – | – | 24.9 ± 4.6 | 59.8 ± 4.4 | 192 ± 90 |
